Laboratory results taken from PubChem BioAssay (NCI).
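Briefly, cells in 96-well plates were exposed to five compound concentrations for 48 h, and endpoints were estimated by linear interpolation. TGI: concentration producing complete growth inhibition.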

How the values were obtained:
Experiment in all cases: inhibition of tumour cell growth, NCI panel, 48 h
786-0 renal = tested on: 786-0 renal
A498 renal = tested on: A498 renal
A549 NSCLC = tested on: A549 NSCLC
ACHN renal = tested on: ACHN renal
CAKI-1 renal = tested on: CAKI-1 renal
CCRF-CEM leukemia = tested on: CCRF-CEM leukemia
COLO 205 colon = tested on: COLO 205 colon
DLD-1 colon = tested on: DLD-1 colon
DMS 114 small cell lung = tested on: DMS 114 small cell lung
DMS 273 small cell lung = tested on: DMS 273 small cell lung
EKVX NSCLC = tested on: EKVX NSCLC
HCC-2998 colon = tested on: HCC-2998 colon
HCT-116 colon = tested on: HCT-116 colon
HCT-15 colon = tested on: HCT-15 colon
HL-60(TB) leukemia = tested on: HL-60(TB) leukemia
HOP-18 NSCLC = tested on: HOP-18 NSCLC
HOP-62 NSCLC = tested on: HOP-62 NSCLC
IGROV1 ovarian = tested on: IGROV1 ovarian
K-562 leukemia = tested on: K-562 leukemia
KM12 colon = tested on: KM12 colon
KM20L2 colon = tested on: KM20L2 colon
LOX IMVI melanoma = tested on: LOX IMVI melanoma
LXFL 529 NSCLC = tested on: LXFL 529 NSCLC
M14 melanoma = tested on: M14 melanoma
M19-MEL melanoma = tested on: M19-MEL melanoma
MALME-3M melanoma = tested on: MALME-3M melanoma
MOLT-4 leukemia = tested on: MOLT-4 leukemia
NCI-H226 lung = tested on: NCI-H226 lung
NCI-H460 lung = tested on: NCI-H460 lung
NCI-H522 lung = tested on: NCI-H522 lung
OVCAR-3 ovarian = tested on: OVCAR-3 ovarian
OVCAR-4 ovarian = tested on: OVCAR-4 ovarian
OVCAR-5 ovarian = tested on: OVCAR-5 ovarian
OVCAR-8 ovarian = tested on: OVCAR-8 ovarian
RPMI-8226 leukemia = tested on: RPMI-8226 leukemia
RXF 393 renal = tested on: RXF 393 renal
RXF-631 renal = tested on: RXF-631 renal
SF-268 CNS = tested on: SF-268 CNS
SF-295 CNS = tested on: SF-295 CNS
SF-539 CNS = tested on: SF-539 CNS
SK-MEL-2 melanoma = tested on: SK-MEL-2 melanoma
SK-MEL-28 melanoma = tested on: SK-MEL-28 melanoma
SK-MEL-5 melanoma = tested on: SK-MEL-5 melanoma
SK-OV-3 ovarian = tested on: SK-OV-3 ovarian
SN12C renal = tested on: SN12C renal
SNB-19 CNS = tested on: SNB-19 CNS
SNB-75 CNS = tested on: SNB-75 CNS
SNB-78 CNS = tested on: SNB-78 CNS
SR leukemia = tested on: SR leukemia
TK-10 renal = tested on: TK-10 renal
U251 CNS = tested on: U251 CNS
UACC-257 melanoma = tested on: UACC-257 melanoma
UACC-62 melanoma = tested on: UACC-62 melanoma
UO-31 renal = tested on: UO-31 renal
XF 498 CNS = tested on: XF 498 CNS
HOP-92 NSCLC = tested on: HOP-92 NSCLC
HT29 colon = tested on: HT29 colon
NCI-H23 lung = tested on: NCI-H23 lung
SW-620 colon = tested on: SW-620 colon

CCOC(=O)CC(C)C1(C=O)CCCCC1=O (stereo not drawn)
TGI (786-0 renal): > 100 µM
TGI (A498 renal): > 100 µM
TGI (A549 NSCLC): > 100 µM
TGI (ACHN renal): > 100 µM
TGI (CAKI-1 renal): > 100 µM
TGI (CCRF-CEM leukemia): > 100 µM
TGI (COLO 205 colon): > 100 µM
TGI (DLD-1 colon): > 100 µM
TGI (DMS 114 small cell lung): 41.6 µM
TGI (DMS 273 small cell lung): > 100 µM
TGI (EKVX NSCLC): > 100 µM
TGI (HCC-2998 colon): > 100 µM
TGI (HCT-116 colon): > 100 µM
TGI (HCT-15 colon): > 100 µM
TGI (HL-60(TB) leukemia): > 100 µM
TGI (HOP-18 NSCLC): > 100 µM
TGI (HOP-62 NSCLC): > 100 µM
TGI (IGROV1 ovarian): > 100 µM
TGI (K-562 leukemia): > 100 µM
TGI (KM12 colon): > 100 µM
TGI (KM20L2 colon): > 100 µM
TGI (LOX IMVI melanoma): 34 µM
TGI (LXFL 529 NSCLC): > 100 µM
TGI (M14 melanoma): > 100 µM
TGI (M19-MEL melanoma): > 100 µM
TGI (MALME-3M melanoma): > 100 µM
TGI (MOLT-4 leukemia): > 100 µM
TGI (NCI-H226 lung): > 100 µM
TGI (NCI-H460 lung): > 100 µM
TGI (NCI-H522 lung): > 100 µM
TGI (OVCAR-3 ovarian): > 100 µM
TGI (OVCAR-4 ovarian): > 100 µM
TGI (OVCAR-5 ovarian): > 100 µM
TGI (OVCAR-8 ovarian): > 100 µM
TGI (RPMI-8226 leukemia): 53.2 µM
TGI (RXF 393 renal): > 100 µM
TGI (RXF-631 renal): > 100 µM
TGI (SF-268 CNS): > 100 µM
TGI (SF-295 CNS): > 100 µM
TGI (SF-539 CNS): > 100 µM
TGI (SK-MEL-2 melanoma): > 100 µM
TGI (SK-MEL-28 melanoma): > 100 µM
TGI (SK-MEL-5 melanoma): > 100 µM
TGI (SK-OV-3 ovarian): > 100 µM
TGI (SN12C renal): > 100 µM
TGI (SNB-19 CNS): > 100 µM
TGI (SNB-75 CNS): > 100 µM
TGI (SNB-78 CNS): > 100 µM
TGI (SR leukemia): 49.8 µM
TGI (TK-10 renal): > 100 µM
TGI (U251 CNS): > 100 µM
TGI (UACC-257 melanoma): > 100 µM
TGI (UACC-62 melanoma): > 100 µM
TGI (UO-31 renal): > 100 µM
TGI (XF 498 CNS): > 100 µM

C=CCO[C@H]1CC[C@@]2(C)C(CC[C@]3(C)C2CC=C2[C@@H]4[C@@H](C)C(C)CC[C@]4(C(=O)O)CCC23C)C1(C)C (stereo partly drawn)
TGI (786-0 renal): 30.6 µM
TGI (A498 renal): 32.4 µM
TGI (A549 NSCLC): 32.7 µM
TGI (ACHN renal): 29.8 µM
TGI (CAKI-1 renal): 33.2 µM
TGI (CCRF-CEM leukemia): 28.9 µM
TGI (COLO 205 colon): 32.4 µM
TGI (DLD-1 colon): 32.1 µM
TGI (DMS 114 small cell lung): 32.1 µM
TGI (EKVX NSCLC): 38.1 µM
TGI (HCC-2998 colon): 32.4 µM
TGI (HCT-116 colon): 25.5 µM
TGI (HL-60(TB) leukemia): 22 µM
TGI (HOP-18 NSCLC): 37.1 µM
TGI (HOP-62 NSCLC): 41 µM
TGI (HOP-92 NSCLC): 32.4 µM
TGI (HT29 colon): 31.6 µM
TGI (IGROV1 ovarian): 33.9 µM
TGI (K-562 leukemia): 28.6 µM
TGI (KM12 colon): 30.5 µM
TGI (KM20L2 colon): 33.2 µM
TGI (LOX IMVI melanoma): 27.2 µM
TGI (LXFL 529 NSCLC): 26.9 µM
TGI (M14 melanoma): 34.6 µM
TGI (M19-MEL melanoma): 35.7 µM
TGI (MALME-3M melanoma): 38.4 µM
TGI (NCI-H226 lung): 39.6 µM
TGI (NCI-H23 lung): 28.9 µM
TGI (NCI-H460 lung): 36.3 µM
TGI (NCI-H522 lung): 28.4 µM
TGI (OVCAR-3 ovarian): 29.8 µM
TGI (OVCAR-4 ovarian): 39.3 µM
TGI (OVCAR-8 ovarian): 36.6 µM
TGI (RXF 393 renal): 22.8 µM
TGI (RXF-631 renal): 28.9 µM
TGI (SF-268 CNS): 40.5 µM
TGI (SF-295 CNS): 27.5 µM
TGI (SF-539 CNS): 34.1 µM
TGI (SK-MEL-28 melanoma): 29.5 µM
TGI (SK-MEL-5 melanoma): 31.8 µM
TGI (SK-OV-3 ovarian): 31.7 µM
TGI (SN12C renal): 27.1 µM
TGI (SNB-19 CNS): 32.2 µM
TGI (SNB-75 CNS): 30.2 µM
TGI (SNB-78 CNS): 35.4 µM
TGI (SR leukemia): 36.2 µM
TGI (SW-620 colon): 35.4 µM
TGI (TK-10 renal): 32.2 µM
TGI (U251 CNS): 30.3 µM
TGI (UACC-257 melanoma): 32.3 µM
TGI (UACC-62 melanoma): 28.3 µM
TGI (UO-31 renal): 31.2 µM
TGI (XF 498 CNS): 20.2 µM
